Measured values published in patent US20240417390A1, “HYDROGEN SULFATE SALT OF A BCL-2 INHIBITOR, RELATED CRYSTALLINE FORM, METHOD FOR PREPARING THE SAME AND PHARMACEUTICAL COMPOSITIONS CONTAINING THE SAME” (LES LABORATOIRES SERVIER, priority 2018, published 2024).

Test: Solubility in water
Assay type: physicochemical
Details: free base
Procedure: Although Compound A is a very promising drug, it is a difficult compound to formulate. In particular, it is […] in water (<0.01 mg/ml for the free base). […] In addition, different polymorphs can have different rates of uptake in the body, leading to lower or higher biological activity than desired. In extreme cases, an undesired polymorph can even show toxicity. […] However, even though polymorphism has been a subject for intensive investigations, understanding and controlling this phenomenon represents a substantial scientific challenge. It is hard to predict whether a given molecule will crystallize in one or several crystal forms, and to find conditions leading to such crystallization.

solubility: < 10 µg/mL
Compound: Cc1c(N(C(=O)c2cc(-c3cc(Cl)ccc3C(=O)N3Cc4ccccc4C[C@H]3CN3CCOCC3)n(C)c2C)c2ccc(O)cc2)cc(C#N)n1C [Compound A, 5-(5-chloro-2-{[(3S)-3-(morpholin-4-ylmethyl)-3,4-dihydroisoquinolin-2(1H)-yl]carbonyl}phenyl)-N-(5-cyano-1,2-dimethyl-1H-pyrrol-3-yl)-N-(4-hydroxyphenyl)-1,2-dimethyl-1H-pyrrole-3-carboxamide]
